Results as given in patent US5734081A, “Arylthio compounds” (Warner-Lambert Company, priority 1995, dated 1998).

Legend:
HIV-1BAKI = test: Anti-HIV activity, clinical isolate HIV-1BAKI in PBL; type: cell-based
Description: (§1) The compounds of the invention were also evaluated against various other HIV strains and cell lines utilizing the assay methodology described above. The compounds were additionally evaluated against clinical isolates of HIV strains.

HIV-1N119 = test: Anti-HIV activity, HIV-1N119 in CEM cells; type: cell-based; conditions: Human immunodeficiency virus 1, CCRF-CEM
Description: (§2) Yet another test system employed to determine antiviral activity is called the CEM cell assay.
(§3) T4 lymphocytes (CEM cell line) are exposed to HIV at a virus to cell ratio approximately 0.05, and plated along with noninfected control cells in 96-well microliter plates.
(§4) The candidate agent is dissolved in dimethyl sulfoxide (unless otherwise noted), then diluted 1:200 in cell culture medium. Further dilutions (half-log10) are prepared before adding to an equal volume of medium containing either infected or noninfected cells. Cultures are incubated at 37° in a 5% carbon dioxide atmosphere for 6 or 7 days. The tetrazolium salt, XTT, is added to all wells, and cultures are incubated to allow formazan color development by viable cells (J. National Cancer Institute, 1989;81:577-586). Individual wells are analyzed spectrophotometrically to quantitate formazan production, and in addition are viewed microscopically for detection of viable cells confirmation of protective activity.
(§5) Drug-tested virus-infected cells are compared with drug-treated noninfected cells and with other appropriate controls (untreated infected and untreated noninfected cells, drug-contain wells without cells, etc.) on the same plate. Data are reviewed in comparison with other tests done at the same time and a determination about activity is made.
as §1

[1] = target: T1, HIV-1 Nucleocapsid Protein (NCp7) (Human immunodeficiency virus type 1 group M subtype B, UniProt P12493); test: Zinc extrusion assay (TSQ fluorescence) from the zinc fingers of HIV-1 nucleocapsid protein (NCp7); type: biochemical; conditions: 10 μM compound, 2.8 μM NCp7, pH 7.4, 26° C., 90 minutes
T1 construct: The NCp7 protein containing 2 Zn-fingers and 2 Zn ions is incubated with drug
Method in brief: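 Purified NCp7 (2.8 μM, 2 Zn ions) incubated with 10 μM compound and 47 μM TSQ at pH 7.4, 26° C, 90 min; released Zn read by TSQ fluorescence (ex 355, em 400 nm) over time. % extrusion = measured fluorescence over that for full theoretical Zn release (5.6 μM) ×100.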

HIV-2ROD = test: Anti-HIV activity, HIV-2ROD in CEM cells; type: cell-based; conditions: Human immunodeficiency virus 2, CCRF-CEM; CEM, HIV-2ROD; read-out: EC50
Description: as §2, §3, §4, §5, §1

HIV-1A17 [2] = test: Anti-HIV activity, HIV-1A17 in MT-4 cells; type: cell-based; conditions: Human immunodeficiency virus 1, MT4
Description: as §1

HIV-16R = test: Anti-HIV activity, HIV-16R in MT-4 cells; type: cell-based, HIV-1; conditions: Human immunodeficiency virus 1, MT4
Description: as §1

HIV-1A17 [3] = test: Anti-HIV activity, HIV-1A17 in MT-2 cells; type: cell-based; conditions: Human immunodeficiency virus 1, MT2
Description: as §1

[4] = Human immunodeficiency virus 1, PBL

Structure (SMILES) | EC50 (HIV-1BAKI; [4]) [nM] | EC50 (HIV-1N119) [nM] | % Zinc Extrusion Relative to Control [1] [%] | EC50 (HIV-2ROD) [nM] | EC50 (HIV-1A17 [2]) [nM] | EC50 (HIV-1BAKI; PBL) [nM] | EC50 (HIV-16R) [nM] | EC50 (HIV-1A17 [3]) [nM]
CC(=O)Nc1ccc(SSc2ccc(NC(C)=O)cc2C(N)=O)c(C(N)=O)c1 [Example 9, 2,2'-Dithiobis(5-acetylamino)benzamide] | 1800 | 2300 | 77 | 1000 | 2400 |  |  | 
NS(=O)(=O)c1ccc(NC(=O)c2ccccc2SSc2ccccc2C(=O)Nc2ccc(S(N)(=O)=O)cc2)cc1 [Example 1] | 300 | 2200 | 20 | 2600 | 600 | 250 | 1900 | 600
